Measurements published in patent US20140271734A1, “BILE ACID RECYCLING INHIBITORS FOR TREATMENT OF BARRETT'S ESOPHAGUS AND GASTROESOPHAGEAL REFLUX DISEASE” (LUMENA PHARMACEUTICALS, INC., priority 2013, published 2014).

Key:
[1] = system: bile acids in the feces; experiment: Fecal bile acid excretion in ZDF rats after oral 264W94; assay type: in vivo, Zucker diabetic fatty rats (ZDF/GmiCrl-fa/fa)
Experimental: (§1) Male Zucker diabetic fatty rats (ZDF/GmiCrl-fa/fa) were purchased from Charles River (Raleigh, N.C.) and housed under controlled conditions (12:12 light-dark cycle, 24° C. and 50% relative humidity) with free access to rodent food (Purina 5008, Harlan Teklad, Indianapolis, Ind.). All rats arrived at seven weeks of age (±3 days). After a one-week acclimation period, rats were anesthetized with isoflurane (Abbott Laboratories, IL) and tail-vein blood samples were collected at 9 am without fasting. Blood glucose levels were measured using a glucometer (Bayer, Leverkusen, Germany). In order to ensure balanced treatment groups, ZDF rats were assigned to six treatment groups based upon baseline glucose: vehicle (0.5% HPMC, 0.1% Tween80) and five doses of 264W94 (0.001, 0.01, 0.1, 1, 10 mg/kg). All treatments were given via oral gavage twice a day and animals were followed for two weeks with blood samples collected from tail vein at the end of each week at 9 am without fasting. Fecal samples were collected for 24 hours during the second week of treatment.
(§2) Non-esterified fatty acids (NEFA), bile acids, and bile acids in fecal extraction were measured using the Olympus AU640 clinical chemistry analyzer (Beckman Coulter, Irving, Tex.).

[2] = system: plasma bile acid; experiment: Plasma bile acid concentrations in ZDF rats; assay type: in vivo
Experimental: as §1, §2
Male ZDF rats (n=4) were administered vehicle, SC-435 (1, 10 or 30 mg/kg) or LUM002 (0.3, 1, 3, 10 or 30 mg/kg) by oral gavage twice a day for 2 weeks. Plasma bile acid levels were determined at the end of the second week. […] Data are expressed as mean values±SEM.

[3] = system: total serum bile acids; experiment: Plasma total serum bile acids in ZDF rats, week 3; assay type: in vivo; conditions: twice daily oral gavage
[4] = system: Alanine Aminotransferase (ALAT); experiment: Plasma alanine aminotransferase in ZDF rats, week 3; assay type: in vivo; conditions: twice daily oral gavage
[5] = system: plasma triglycerides; experiment: Plasma triglycerides in ZDF rats, week 3; assay type: in vivo; conditions: twice daily oral gavage, no dose-related response
[6] = system: Hemoglobin A1c (HbA1c); experiment: Baseline-corrected percent HbA1c in ZDF rats; assay type: in vivo; conditions: twice daily oral gavage
[7] = system: GLP-2; experiment: GLP-2 in plasma of non-fasted ZDF rats, 2 weeks treatment; assay type: in vivo
[8] = system: plasma lipase; experiment: Plasma lipase in ZDF rats, week 3; assay type: in vivo; conditions: twice daily oral gavage
[9] = system: plasma amylase; experiment: Plasma amylase in ZDF rats, week 3; assay type: in vivo; conditions: twice daily oral gavage
[10] = system: Alkaline Phosphatase (ALP); conditions: twice daily oral gavage; Week 3
Experimental: This study was conducted to determine the effects of two non-absorbed ASBTi compounds in the ZDF rat model after 3 weeks of treatment.
Animals were acclimatized for 5-7 days after arrival. […] The 2nd set of study was initiated after completion of the 1st. Test compound formulation prepared every other day and stored at 4° C. […] After 3rd week of treatment blood samples were collected by cardiac puncture from fasted animals for blood chemistry analysis: ALAT, ASAT, GGT, Alkaline Phosphatase and total Bile Acids. Tests were performed in contract clinical laboratory (Liver Profile SA320, Antech Diagnostics, Orange Country, Calif.).
Blood was collected by tail vein bleed weekly and after 3 weeks of treatment by cardiopuncture for serum tests. Data for each group is presented as the Mean Value±SEM. Statistically evaluation by t-test: *P<0.05, **P<0.01,***P<0.001 vs. vehicle group.

[11] = 264W94 0.001-10 mg/kg oral gavage twice a day, 2 weeks

Structure (SMILES) | Bile acids in the feces [1, 11] | Fecal bile acid concentrations elevated vs vehicle treated rats ([1]; 264W94 0.001-10 mg/kg oral gavage twice a day, 24 h feces in second week) | Fecal NEFA ([1]; 264W94 oral gavage twice a day, 2 weeks) | ED50 (fecal bile acid elevation) ([1]; oral gavage twice a day, 2 weeks) | Plasma bile acid concentrations [2, 11] | Plasma bile acid levels ([2]; SC-435 1, 10 or 30 mg/kg, LUM002 0.3, 1, 3, 10 or 30 mg/kg, oral gavage twice a day, end of second week, n=4) | Plasma total serum bile acids (SBA) [3] | Plasma alanine aminotransferase (ALAT) [4] | Fasting plasma triglycerides [5] | Baseline-corrected percent HbA1c [6] | GLP-2 in plasma [7] | Plasma lipase [8] | Plasma amylase [9] | Plasma alkaline phosphatase (ALP) [10]
CCCC[C@]1(CC)CS(=O)(=O)c2cc(OC)c(OC)cc2[C@@H](c2ccccc2)N1 [Compound 264W94] | dose-dependently increased | up to 6.5 fold | slightly increased | 0.17 mg/kg | decreased dose-dependently |  |  |  |  |  |  |  |  | 
CCCCC1(CCCC)CS(=O)(=O)c2ccc(N(C)C)cc2[C@@H](c2ccc(OCCCC[N+]34CCN(CC3)CC4)cc2)[C@H]1O.CS(=O)(=O)[O-] [SC-435, 1-[4-[4-[(4R,5R)-3,3-dibutyl-7-(dimethylamino)-2,3,4,5-tetrahydro-4-hydroxy-1,1-dioxido-1-benzothiepin-5-yl]phenoxy]butyl]4-aza-1-azoniabicyclo[2.2.2]octane methanesulfonate salt, reference compound] |  |  |  |  |  | decreased for all doses | statistically significant reductions in SBA | Neither LUM002 nor SC-435 caused statistically significant reductions | statistically significant elevations | significant dose-dependent reductions | significant elevations in GLP2 at higher doses | statistically significant reductions in plasma lipase at higher doses | Neither LUM002 nor SC-435 caused a statistically significant changes | significant reductions in ALP
